Assay results from patent US8993626B2, “Methods of treatment using sterculic acid” (The United States of America, as represented by the …, priority 2010, dated 2015).

Columns and labels:
[1] = tested on: Breast Cancer, NCI/ADR-RES; assay: NCI in vitro anti-cancer cell line screen (SRB); conditions: Homo sapiens, 48 h
Procedure: (§3) The human tumor cell lines used in the cancer screen panel were grown in RPMI 1640 medium containing 5% FBS and 2 mM L-glutamine. The cells were inoculated into 96-well microtiter plates in 100 μl at plating density ranging from 5000 to 40,000 cell/well. […] Following drug addition, the plates were incubated for an additional 48 h. The assay was terminated by the addition of cold 10% TCA. The supernatant was discarded, and the plates were washed five times with water and air dried. Sulforhodamine B (SRB) solution (100 μl) at 0.4% (w/v) in 1% acetic acid was added to each well, and plates were incubated for 10 min at room temperature. After staining, unbound dye was removed by washing five times with 1% acetic acid and the plates were air dried. Bound stain was subsequently solubilized with 10 mM trizma base, and the absorbance was read on an automated plate reader at a wavelength of 515 nm.
(§4) A sulforhodamine B (SRB) end point was used to calculate the median growth inhibition (GI50). GI50 refers to the concentration at which the drug inhibits tumor cell growth by 50%.

HUVEC = assay: Cord formation assay on Matrigel; format: cell-based; conditions: data not shown
ARPE-19 cells = assay: qRT-PCR of inflammatory cytokines and ER stress markers, 7KCh-mediated inflammation; format: cell-based
Procedure: FIGS. 13A-13D depict mRNA expressions of (A) VEGF, (B) IL-6, (C) GRP78, and (D) CHOP in response to 8 μM 7KCh with or without 1 μM long-chain fatty acids. Error bars indicate the standard deviations. *p<0.05 comparing to 7KCh, n=3. Two-tailed Student's t-test.
(§1) FIGS. 14A-14D depict mRNA expressions of (A) VEGF, (B) IL-1b, (C) IL-6, and (D) IL-8 in response to 8 μM 7KCh, 1 μM sterculic acid, 1 μM stearic acid, or the combinations of 7KCh with either sterculic acid or stearic acid. Error bars indicate the standard deviations. *p<0.05 comparing to 7KCh, n=4. Two-tailed Student's t-test.
as §1, with “15A-15D” for “14A-14D”, “TNF-α,” for “VEGF,”, “TGF-β1,” for “IL-1b,”, “GRP78,” for “IL-6,”, “CHOP” for “IL-8”, “n=3-4.” for “n=4.”
ARPE-19 cells were seeded in 24-well plates with 1×10^5 cells per well and allowed to recover for 16-24 hr. Once confluency reached approximately 90%, the effect of the fatty acids against 7KCh-mediated cell death was examined 24 hr after incubation in serum-free medium with 12 μM 7KCh. Fatty acids were tested at 0.1, 0.5, 1, 5 and 10 μM concentrations. The effects of the fatty acids against 7KCh-mediated inflammation and ER stress were examined by incubating cells in 1 μM fatty acids with either 8 μM 7KCh (24 hr for quantitative real-time PCR (qRT-PCR), 24 and 48 hr for immunoblot), or 6 μM 7KCh for 48 hr (for ELISA). Three individual experiments were performed for each treatment with quadruplicate measurements performed for each experiment in 24-well plates.
(§2) The RNA was extracted using RNeasy Mini Kit (Qiagen, Valencia, Calif.). The reverse transcription was performed with reagents and kits from Invitrogen. Quantification of mRNA expression was performed using the Taqman gene expression assays and the following primers (VEGFa, Hs00173626_m1; IL-1β, Hs01555413_m1; IL-6, Hs00174131_m1; IL-8, Hs00174103_m1; IκBα, Hs00153283_m1; GRP78, Hs99999174_m1; CHOP, Hs01090850_m1; NOX2, Hs00166163_m1; NOX4, Hs01558199_m1; SCD, Hs00748952 s1; TNF-α, Hs00174128_m1; TGF-β1, Hs00998133_m1; GAPD, 4352934e). GAPD expression was used as an endogenous standard. All qRT-PCR experiments were measured in triplicates in an ABI 7500 Real-Time PCR Instrument (Applied Biosystems, Foster City, Calif.). The results of each treatment were normalized and presented in percentage relative to the vehicle-only control.

D407 cells = assay: 7-ketocholesterol-mediated cytotoxicity, 24-well CCK-8 viability; conditions: 11 μM 7KCh, 24 hr, CCK-8
ARPE19 cells [2] = assay: CellTiter-Glo luminescent cell viability assay, 15 μM 7KCh-induced cytotoxicity; format: cell-based, human; conditions: 1 μM + 15 μM 7KCh, 24 hr
Procedure: Error bar: standard deviation, n=4.
CellTiter-Glo® Luminescent Cell Viability Assay is a homogeneous method of determining the number of viable cells in culture based on quantitation of the ATP (luminescent signal) present, an indicator of metabolically active cells.
The contents in a plate were mixed for 2 min on an orbital shaker to induce cell lysis.
5) The plate was allowed to incubate at room temperature for 10 min to stabilize luminescent signal.

ARPE19 cells [3] = assay: Phase-contrast images of cells after co-treatment with 15 μM 7KCh; format: cell-based, human; conditions: 1 μM fatty acid + 15 μM 7KCh, 24 hr
Source text: FIG. 8 depicts phase-contrast images of ARPE19 cells at 24 hr after sterculic acid co-treatment with 7KCh.

Colon Cancer, SW-620 = assay: NCI in vitro anti-cancer cell line screen (SRB); conditions: Homo sapiens, SW-620, 48 h
Procedure: as §3, §4

[4] = tested on: stearoyl-CoA desaturase (SCD); assay: SCD mRNA expression (qRT-PCR); format: cell-based
Procedure: FIGS. 18A and 18B depict (A) Dose response of SCD mRNA inductions by 0-12 μM 7KCh after 24 hr treatments. (B) The mRNA expressions of SCD in response to 8 μM 7KCh, 1 μM sterculic acid, 1 μM stearic acid, or the combinations of 7KCh with either sterculic acid or stearic acid. Error bars indicate the standard deviations. n=4.
as §2
To determine the effect of 7KCh on SCD expression ARPE-19 cells were incubated with 4 μM 7KCh for 24 hr. 7KCh suppressed SCD mRNA expression by approximately 60-70% (FIG. 18A). […] Treatment of the cells with 8 μM 7KCh and 1 μM sterculic acid further suppress SCD expression to 86% (FIG. 18B). […] This is the only instance where 7KCh and sterculic acid worked synergistically rather than antagonistically.

CCCCCCCCC1=C(CCCCCCCC(=O)O)C1 [sterculic acid, 8-(2-octacyclopropen-1-yl)octanoic acid]
GI50 [1]: 10 µM
viability of HUVEC at concentrations required to inhibit cord formation (HUVEC): did not affect their viability
effect on 7KCh-mediated mRNA induction (inflammatory response) (ARPE-19 cells; 1 μM fatty acid + 8 μM 7KCh, 24 hr, FIG. 13): complete inhibition
effect of fatty acid alone on the mRNA expression of the cytokines (ARPE-19 cells; 1 μM fatty acid alone, no 7KCh, FIGS. 14, 15): no effect
VEGF mRNA expression (ARPE-19 cells; 8 μM 7KCh alone or with 1 μM fatty acid, 24 hr, FIG. 13A): basal levels
IL-6 mRNA expression (ARPE-19 cells; 8 μM 7KCh alone or with 1 μM fatty acid, 24 hr, FIG. 13B): basal levels
GRP78 mRNA expression (ARPE-19 cells; 8 μM 7KCh alone or with 1 μM fatty acid, 24 hr, FIG. 13C): basal levels
CHOP mRNA expression (ARPE-19 cells; 8 μM 7KCh alone or with 1 μM fatty acid, 24 hr, FIG. 13D): basal levels
induction of VEGF mRNA (ARPE-19 cells; 8 μM 7KCh alone or with 1 μM fatty acid, FIG. 14A): 2.5 fold
induction of IL-1β mRNA (ARPE-19 cells; 8 μM 7KCh alone or with 1 μM fatty acid, FIG. 14B): 3.9 fold
induction of IL-6 mRNA (ARPE-19 cells; 8 μM 7KCh alone or with 1 μM fatty acid, FIG. 14C): 5.1 fold
induction of IL-8 mRNA (ARPE-19 cells; 8 μM 7KCh alone or with 1 μM fatty acid, FIG. 14D): 1.8 fold
induction of TNF-α mRNA (ARPE-19 cells; 8 μM 7KCh alone or with 1 μM fatty acid, FIG. 15A): 1.5 fold
induction of TGF-β1 mRNA (ARPE-19 cells; 8 μM 7KCh alone or with 1 μM fatty acid, FIG. 15B): 1 fold
induction of GRP78 mRNA (ARPE-19 cells; 8 μM 7KCh alone or with 1 μM fatty acid, FIG. 15C): 1.3 fold
induction of CHOP mRNA (ARPE-19 cells; 8 μM 7KCh alone or with 1 μM fatty acid, FIG. 15D): 4.1 fold
co-treatment concentration that completely offsets the 7KCh cytotoxic effect (viability at level of control) (D407 cells): 5 µM
cell viability relative to the level of untreated control (ATP level) (ARPE19 cells [2]): 80%
cell morphological changes compared to 7KCh alone (ARPE19 cells [3]): much less proportion of dead cell and cell debris
GI50 (Colon Cancer, SW-620): 1 µM
inhibition of SCD expression ([4]; 1 μM sterculic acid alone): similarly to 8 μM 7KCh
suppression of SCD expression ([4]; 8 μM 7KCh and 1 μM sterculic acid): 86%
